# Experimental data as given in patent US20230167127A1, “COMPOUNDS AND THEIR USE IN THE TREATMENT OF BACTERIAL INFECTION” (Hoffmann-La Roche Inc., priority 2020, published 2023).
# Test system: Escherichia coli ATCC 25922
# Experiment: 50% growth inhibitory concentration (IC50) determination, Iso-Sensitest broth dilution
# Type: cell-based
# Conditions: Escherichia coli, ATCC25922, 16 h, strain Escherichia coli ATCC 25922; 10-point broth dilution, optical density at 600 nm over 16 h; read-out: Escherichia coli growth inhibition IC50
# In short: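 Growth was tracked as optical density at 600 nm every 20 minutes for 16 h at 35±2° C. Compounds from DMSO stocks were serially diluted twofold over 10 points (e.g. 50–0.097 μM final) in Iso-Sensitest broth. Inhibition computed in log-phase growth to give IC50.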
row,IC50 [µM],SMILES
1,0.823,"O=C1COc2ccc(N3CC([C@H]4C[C@H](NC5Cc6cccc(Cl)c6C5)C4)OC3=O)nc2N1 (stereo partly drawn) [Example 17, 6-[5-[trans-3-[(4-chloro-2,3-dihydro-1H-inden-2-yl)amino]cyclobutyl]-2-oxo-1,3-oxazolidin-3-yl]-4H-pyrido[3,2-b][1,4]oxazin-3-one]"
2,0.145,"N#Cc1c(OC2CNC2)ccc2c1CC(CNCCC1CN(c3ccc4c(n3)NC(=O)CO4)C(=O)O1)C2 (stereo not drawn) [Example 132, 5-(azetidin-3-yloxy)-2-[[2-[2-oxo-3-(3-oxo-4H-pyrido[3,2-b][1,4]oxazin-6-yl)-1,3-oxazolidin-5-yl]ethylamino]methyl]-2,3-dihydro-1H-indene-4-carbonitrile; formic acid]"
3,< 0.0977,"N#Cc1cccc2c1C(N)C(CNCCC1CN(c3ccc4c(n3)NC(=O)CS4)C(=O)O1)C2 (racemic) [Example 157, rac-2,3-trans-3-amino-2-[[2-[2-oxo-3-(3-oxo-4H-pyrido[3,2-b][1,4]thiazin-6-yl)-1,3-oxazolidin-5-yl]ethylamino]methyl]-2,3-dihydro-1H-indene-4-carbonitrile]"
4,< 0.0977,"N#Cc1c(OC2COC2)ccc2c1CC(CNCCC1CN(c3ccc4c(n3)NC(=O)CO4)C(=O)O1)C2 (stereo not drawn) [Example 63, 5-(oxetan-3-yloxy)-2-[[2-[2-oxo-3-(3-oxo-4H-pyrido[3,2-b][1,4]oxazin-6-yl)-1,3-oxazolidin-5-yl]ethylamino]methyl]-2,3-dihydro-1H-indene-4-carbonitrile]"
5,0.232,"N#Cc1nccc2c1CC(NCCCC1CN(c3ccc4c(n3)NC(=O)CO4)C(=O)O1)C2 (stereo not drawn) [Example 95, 6-[3-[2-oxo-3-(3-oxo-4H-pyrido[3,2-b][1,4]oxazin-6-yl)-1,3-oxazolidin-5-yl]propylamino]-6,7-dihydro-5H-cyclopenta[c]pyridine-1-carbonitrile]"
6,0.281,"CN(CCOc1cc(F)c2c(c1)CC(CNCCC1CN(c3cnc4c(n3)NC(=O)CO4)C(=O)O1)C2)S(C)(=O)=O (stereo not drawn) [Example 325, N-[2-[[7-fluoro-2-[[2-[2-oxo-3-(3-oxo-4H-pyrazino[2,3-b][1,4]oxazin-6-yl)-1,3-oxazolidin-5-yl]ethylamino]methyl]-2,3-dihydro-1H-inden-5-yl]oxy]ethyl]-N-methylmethanesulfonamide]"
7,0.106,"CNC(=O)COc1ccc2c(c1C#N)CC(CNCCC1CN(c3ccc4c(n3)NC(=O)CO4)C(=O)O1)C2 (stereo not drawn) [Example 48, 2-[[4-cyano-2-[[2-[2-oxo-3-(3-oxo-4H-pyrido[3,2-b][1,4]oxazin-6-yl)-1,3-oxazolidin-5-yl]ethylamino]methyl]-2,3-dihydro-1H-inden-5-yl]oxy]-N-methylacetamide]"
8,< 0.0977,"Cc1ncc(Cl)c2c1CC(CNCCC1CN(c3ccc4c(n3)NC(=O)CS4)C(=O)O1)C2N (racemic) [Example 264, 3-(3-Oxo-4H-pyrido[3,2-b][1,4]thiazin-6-yl)-5-[2-[[rac-5,6-trans-5-amino-4-chloro-1-methyl-6,7-dihydro-5H-cyclopenta[c]pyridin-6-yl]methylamino]ethyl]-1,3-oxazolidin-2-one]"
9,0.098,"CNC(=O)COc1ccc2c(c1Cl)CC(CNCCC1CN(c3cnc4c(n3)NC(=O)CO4)C(=O)O1)C2 (stereo not drawn) [Example 109, 2 2-[[4-chloro-2-[[2-[2-oxo-3-(3-oxo-4H-pyrazino[2,3-b][1,4]oxazin-6-yl)-1,3-oxazolidin-5-yl]ethylamino]methyl]-2,3-dihydro-1H-inden-5-yl]oxy]-N-methylacetamide]"
10,1.11,"Cc1nc(OCCCS(C)(=O)=O)c(C)c2c1CC(CNCCC1CN(c3ccc4c(n3)NC(=O)CO4)C(=O)O1)C2 (stereo not drawn) [Example 105, 6-[5-[2-[[1,4-dimethyl-3-(3-methylsulfonylpropoxy)-6,7-dihydro-5H-cyclopenta[c]pyridin-6-yl]methylamino]ethyl]-2-oxo-1,3-oxazolidin-3-yl]-4H-pyrido[3,2-b][1,4]oxazin-3-one]"
11,0.167,"CNC(=O)COc1cc(C)c2c(c1C#N)CC(CNCCC1CN(c3cnc4c(n3)NC(=O)CO4)C(=O)O1)C2 (stereo not drawn) [Example 384, 2-[[4-cyano-7-methyl-2-[[2-[2-oxo-3-(3-oxo-4H-pyrazino[2,3-b][1,4]oxazin-6-yl)-1,3-oxazolidin-5-yl]ethylamino]methyl]-2,3-dihydro-1H-inden-5-yl]oxy]-N-methylacetamide]"
12,0.717,"Cc1c(OCC(=O)NC(C)C)nc(C#N)c2c1CC(CNCCC1CN(c3ccc4c(n3)NC(=O)CO4)C(=O)O1)C2 (stereo not drawn) [Example 222, 2-((1-cyano-4-methyl-6-(((2-(2-oxo-3-(3-oxo-3,4-dihydro-2H-pyrido[3,2-b][1,4]oxazin-6-yl)oxazolidin-5-yl)ethyl)amino)methyl)-6,7-dihydro-5H-cyclopenta[c]pyridin-3-yl)oxy)-N-isopropylacetamide]"
13,< 0.0977,"NC(COc1cc(F)c2c(c1)CC(CNCCC1CN(c3ccc4c(n3)NC(=O)CO4)C(=O)O1)C2)C(=O)O (stereo not drawn) [Example 267, 2-Amino-3-[[7-fluoro-2-[[2-[2-oxo-3-(3-oxo-4H-pyrido[3,2-b][1,4]oxazin-6-yl)-1,3-oxazolidin-5-yl]ethylamino]methyl]-2,3-dihydro-1H-inden-5-yl]oxy]propanoic acid; formic acid]"
14,< 0.0977,"Cc1ncc(Cl)c2c1CC(CNCCC1CN(c3cnc4c(n3)NC(=O)CO4)C(=O)O1)C2 (stereo not drawn) [Example 60, 6-[5-[2-[(4-chloro-1-methyl-6,7-dihydro-5H-cyclopenta[c]pyridin-6-yl)methylamino]ethyl]-2-oxo-1,3-oxazolidin-3-yl]-4H-pyrazino[2,3-b][1,4]oxazin-3-one; formic acid]"
15,0.192,"Cn1ccc(COc2cc(C#N)c3c(c2)CC(CNCCC2CN(c4cnc5c(n4)NC(=O)CO5)C(=O)O2)C3)n1 (stereo not drawn) [Example 388, 6-[(1-methylpyrazol-3-yl)methoxy]-2-[[2-[2-oxo-3-(3-oxo-4H-pyrazino[2,3-b][1,4]oxazin-6-yl)-1,3-oxazolidin-5-yl]ethylamino]methyl]-2,3-dihydro-1H-indene-4-carbonitrile]"
16,0.471,"CCNC(=O)COc1cc(F)c2c(c1)CC(CNCCC1CN(c3cnc4c(n3)NC(=O)CO4)C(=O)O1)C2 (stereo not drawn) [Example 308, N-ethyl-2-[[7-fluoro-2-[[2-[2-oxo-3-(3-oxo-4H-pyrazino[2,3-b][1,4]oxazin-6-yl)-1,3-oxazolidin-5-yl]ethylamino]methyl]-2,3-dihydro-1H-inden-5-yl]oxy]acetamide; formic acid]"
17,< 0.0977,"CC(N)COc1cc(F)c2c(c1)CC(CN1CCC3(CC1)CN(c1cnc4c(n1)NC(=O)CO4)C(=O)O3)C2 (stereo not drawn) [Example 260, 6-[8-[[6-(2-Aminopropoxy)-4-fluoro-2,3-dihydro-1H-inden-2-yl]methyl]-2-oxo-1-oxa-3,8-diazaspiro[4.5]decan-3-yl]-4H-pyrazino[2,3-b][1,4]oxazin-3-one; formic acid]"

# Same assay, conditions: strain Escherichia coli ATCC 25922; 10-point broth dilution, optical density at 600 nm over 16 h; read-out: Escherichia coli growth inhibition IC50
row,IC50 [µM],SMILES
1,0.217,"O=C1COc2ncc(N3CC(CC(O)CNC4Cc5cccc(F)c5C4)OC3=O)nc2N1 (single isomer, unassigned; isomer b) [Example 84, 6-[5-[3-[(4-fluoro-2,3-dihydro-1H-inden-2-yl)amino]-2-hydroxypropyl]-2-oxo-1,3-oxazolidin-3-yl]-4H-pyrazino[2,3-b][1,4]oxazin-3-one, Isomer B; formic acid]"
